# Assays:
# [1] = test system: DBA/2 Ha mice with SMT-F subcutaneous tumors; test: Proto IX content of tissues of tumor-bearing mice fed the agent (Example 6); format: in vivo; conditions: for concentration of Proto IX in tissue, Adrenal / concentration of Proto IX in tissue, Intestine / concentration of Proto IX in tissue, Kidneys / concentration of Proto IX in tissue, Liver / concentration of Proto IX in tissue, Tumor / Proto IX Mean Cps per gram, Intestine: 2000 ppm in feed; for Proto IX Mean Cps per gram, Adrenal / Proto IX Mean Cps per gram, Kidneys / Proto IX Mean Cps per gram, Liver / Proto IX Mean Cps per gram, Tumor / Weight of Tumor as excised: 2000 ppm in feed Days 2-10, sacrificed Day 10 (6j Day 7); for Proto IX Mean Cps per gram, Intestine: samples diluted with 3 parts basic acetone to one part sample
# Description: In this Example the enzyme-inhibiting agents were added to the feed of tumor-bearing mice; for some of the mice, used as a control, no agent was added to the feed. The mice were then sacrificed and their kidneys, intestines, adrenal glands, liver and tumor were removed and analyzed for their content of Proto IX. The following enzyme-inhibiting agents were employed: [drawing 10]
# More particularly, the mice were DBA/2 Ha mice which had been injected with SMT-F subcutaneous tumors on Day 0 in the right shoulder. The mice, individually housed, received untreated Purina Rodent Chow 5001 Mash on Day 1; thereafter on Days 2 through 10 the mice received the same Mash treated with 2000 ppm of the inhibiting agent being tested (or, for the controls, the same untreated Mash). The treatment of the Mash was effected by blending it with a small amount of an acetone solution of the agent to be tested. The mice were then sacrificed on Day 10, except for the mouse treated with the agent designated as 6j; the latter was sacrificed on Day 7. The tissues were refrigerated at 4° C. overnight, then blotted dry, and the fresh weight of each tissue sample was recorded. The tissues were then homogenized in 5 mL, or lo mL in the cases of intestines and liver, of acetone-0.1 N NH4 OH (9:I, v/v). The homogenates were then centrifuged at 1500 g and the supernatants were analyzed on a SPEX FAII2 spectrofluorometer; excitation 400 nm, emission 630 nm wavelengths, the optima for Proto IX. Proto IX accumulation was determined as CPS (fluorescent counts per second emitted) per gram of tissue. The results are tabulated below (results are averages for two mice for each treatment, except for treatments with agents 6f, 6h, 6i and 6j in each of which only one mouse was treated): […]
# HeLa cells [2] = test: Tetrapyrrole accumulation in treated HeLa cells (Example 1); format: cell-based, human; conditions: 3 days in the dark
# Description: HeLa cells (a human tumor cell line commonly employed for tumor research and obtained from the American Type Culture Collection), in logarithmic growth phase (having been cultured at 37° C. for five days in one-liter Falcon tissue culture flasks), were washed in phosphate buffered saline (PBS). A 0.25% solution of trypsin in PBS (2 mL) was added, and, after several minutes, the cells were gently removed from the flask and placed into 110 mL of a 25 mM solution of Hepes in Minimum Essential Medium (MEM) supplemented with 10% v/v inactivated calf serum, 1.1 mL of a 200 mM solution of glutamine in 0.85% saline solution, and 11,000 units of penicillin/11,000 mcg streptomycin.
# Then, 5.0 mL aliquots of the resulting resuspended cell culture were each placed into a 50 mL Falcon tissue culture flask and (except for the control) mixed with the treating agent. The aliquots were then incubated in the dark at 37° C. for three days. The cells were then removed and extracted under green light in the following manner:
# Cells were removed from the bottom of the flask with the addition of 0.8 mL of a 0.25% solution of trypsin in PBS. After 1 hour of incubation in the dark, cells and medium were removed from the flasks, placed into round bottom centrifuge tubes, and then subjected to two rounds of freeze-thaw conditions to disrupt the cells and allow for extraction.
# Ten mL of basic acetone (90% acetone:10% of 0.1 N NH4 OH) was then added to each tube, and the tubes were centrifuged to remove protein and cell debris. Five mL of water was added to the supernatant, followed by 0.5 mL of a saturated aqueous solution of NaCl. The pH was then adjusted to 6.8 by the dropwise addition of 2 M KH2 PO4. The aqueous acetone extract was then loaded onto a C8 Baker Prep column. The columns were dried and then washed with 2 mL of water. The tetrapyrroles were eluted with 2×1.5 mL volumes of 90/10 CH3 OH/H2 O. Extracts were then quantified on a spectrofluorometer.
# Agent A was supplied as a filter-sterilized 250 mM solution in water, pH 6.5. Agents B, C, D, and E were supplied as 50 mM solutions in acetone. Acetone was also added to the control to provide a concentration of 0.2% v/v therein. The amounts of the agents added to the cell cultures were such as to give the concentrations specified in the Table 1 below. The amounts of the tetrapyrrole protoporphyrin IX ("Proto IX") produced are shown in that Table.
# HeLa cells [3] = test: Growth inhibition and Proto IX accumulation in HeLa cells (Example 2); format: cell-based, human; conditions: for Amount of Proto IX: average amount per 10^6 cells; for inhibition at 100 µM: 4 days in the dark
# Description: HeLa cells, in logarithmic growth phase having been cultured for 6 days in six one-liter Falcon tissue culture flasks at 37° C.), were washed in phosphate buffered saline (PBS). A 0.25% solution of trypsin in PBS was added, and, after several minutes, the cells were gently removed and placed into 110 mL of a 25 mM solution of Hepes in Minimum Essential Medium (MEM), supplemented with 10% v/v inactivated calf serum, 1.1 mL of a 200 mM solution of glutamine in 0.85% saline solution, and 11,000 units of penicillin/11,000 mcg streptomycin.
# Aliquots (5.0 mL each) of the resuspended cell culture were placed into 50 mL Falcon tissue culture flasks, with or without herbicide, and incubated in the dark at 37° C. for 4 days, the herbicide being added in dilute acetone solution as in Example 1. Acetone was also added to the controls to provide a concentration of acetone of 0.2% v/v therein. The amount of herbicide was such as to provide the concentrations specified in Table 2 below.
# Extraction: The media from each of the flasks were placed in glass round bottom tubes, while the cells adhering to the bottom of the flasks were loosened by the addition of 0.5 mL of a 0.25% solution of trypsin in PBS, and after several minutes at 37° C., then washed from the flasks and recombined with their media. Aliquots of 100 μL were then removed from each cell suspension to determine cell density. The remaining 5.4 mL of cell suspension was then sonified for 30 minutes to disrupt the cells.
# Ten mL of basic acetone (90% acetone:10% 0.1 N NH4 OH) was then added to each tube, and the tubes were centrifuged to remove protein and cell debris. Five mL of water was added to the supernatant, followed by 0.5 mL of a saturated aqueous solution of NaCl. The pH was then adjusted to 6.8 by the dropwise addition of 2 M KH2 PO4. The aqueous acetone extract was then loaded onto a C8 Baker Prep column. The columns were dried and then washed with 2 mL of water. The tetrapyrroles were eluted with 3 mL of 90/10 CH3 OH/H2 O. As in Example 1, all these extraction procedures were carried out substantially entirely under non-protoporphrin IX-exciting light (e.g. green light) or in the dark (e.g. in opaque covered containers). The fluorescence of the extracts was then determined on a SPEX spectrofluorometer. Protoporphyrin IX ("Proto IX") accumulation was quantified utilizing predetermined extinction coefficients.
# HeLa cells [4] = test: Proto IX in HeLa cells and culture medium, cell growth observations (Example 8); format: cell-based, human; conditions: 100 μM agent, compared to the control; for inhibition at 100 µM: Homo sapiens, HeLa, read-out: inhibiting effect on cell growth (rough observations)
# Description: In a manner similar to Examples 1 and 2, cultures of HeLa cells were incubated in the presence of 100 μM of various treating agents, listed below. The agent was added in dilute solution in dimethylsulfoxide (DMSO),and the controls contained 0.2% DMSO v/v. After such incubation the culture medium was poured off, removing it from the cells, the cells were loosened from the culture flasks by addition of 0.25% W/v trypsin Which remained in contact With the cells for 20 minutes at 37° C., after which a fluorometric medium was added to the flask. The fluorometric medium was the same as that described in Example 7 except that its pH was 6.5; this medium also acted as an extractant. The resulting extract was analyzed for proto IX content. The separated culture medium was also analyzed fluorometrically for Proto IX content. The pairs of percentages given, next to each treating agent, indicate the amount of Proto IX produced in the presence of that treating agent relative to the amount produced by the control in the same experiment; the first number of each pair relates to the concentration of Proto IX in the culture medium and the second number relates to the concentration in the cells. [drawing 12]
# [5] = Homo sapiens, HeLa, 96 h, 100 μM agent
structure (smiles),measurement,setting,value
CC(C)Oc1cc(-n2nc(C(C)(C)C)oc2=O)c(Cl)cc1Cl [Agent 6d],"concentration of Proto IX in tissue, Adrenal",[1],4 ug of Proto IX per gram of tis
same,"concentration of Proto IX in tissue, Intestine",[1],51 ug of Proto IX per gram of tis
same,"concentration of Proto IX in tissue, Kidneys",[1],117 ug of Proto IX per gram of tis
same,"concentration of Proto IX in tissue, Liver",[1],14 ug of Proto IX per gram of tis
same,"concentration of Proto IX in tissue, Tumor",[1],18 ug of Proto IX per gram of tis
same,"Proto IX Mean Cps per gram, Adrenal",[1],443 Cps per gram × 10^3
same,"Proto IX Mean Cps per gram, Kidneys",[1],12865 Cps per gram × 10^3
same,"Proto IX Mean Cps per gram, Liver",[1],1581 Cps per gram × 10^3
same,"Proto IX Mean Cps per gram, Tumor",[1],2006 Cps per gram × 10^3
same,Weight of Tumor as excised,[1],294 mg
same,"Proto IX Mean Cps per gram, Intestine",[1],5565 Cps per gram × 10^3
CC(C)Oc1cc(-n2c(=O)n3n(c2=S)CCCC3)c(F)cc1Cl [Agent 6e],"concentration of Proto IX in tissue, Adrenal",[1],12 ug of Proto IX per gram of tis
same,"concentration of Proto IX in tissue, Intestine",[1],19 ug of Proto IX per gram of tis
same,"concentration of Proto IX in tissue, Kidneys",[1],8 ug of Proto IX per gram of tis
same,"concentration of Proto IX in tissue, Liver",[1],8 ug of Proto IX per gram of tis
same,"concentration of Proto IX in tissue, Tumor",[1],8 ug of Proto IX per gram of tis
same,"Proto IX Mean Cps per gram, Adrenal",[1],1331 Cps per gram × 10^3
same,"Proto IX Mean Cps per gram, Kidneys",[1],915 Cps per gram × 10^3
same,"Proto IX Mean Cps per gram, Liver",[1],876 Cps per gram × 10^3
same,"Proto IX Mean Cps per gram, Tumor",[1],837 Cps per gram × 10^3
same,Weight of Tumor as excised,[1],165 mg
same,"Proto IX Mean Cps per gram, Intestine",[1],2069 Cps per gram × 10^3
"NCC(=O)CCC(=O)O [Agent A, 5-amino levulinic acid, reference compound]",Amount of Proto IX,HeLa cells [2]; 5000 μM agent,4.2 pmol
same,Fluorescence Emission cps 400/630,HeLa cells [2]; 5000 μM agent,41842 cps
CCOC(=O)C(C)Oc1ccc(Oc2cc(-n3nc(C)n(C(F)F)c3=O)c(F)cc2Cl)cc1 (stereo not shown) [Agent C],Amount of Proto IX,HeLa cells [2]; 100 μM agent,3.5 pmol
same,Fluorescence Emission cps 400/630,HeLa cells [2]; 100 μM agent,33477 cps
same,Amount of Proto IX,HeLa cells [3]; 1 μM agent,0.19 pmol
same,Amount of Proto IX,HeLa cells [3]; 10 μM agent,0.57 pmol
same,Amount of Proto IX,HeLa cells [3]; 100 μM agent,4.41 pmol
same,activity at 1 µM,"HeLa cells [3]; Homo sapiens, HeLa, 96 h, 1 μM agent, percent of control, read-out: Relative % proto IX",86%
same,activity at 10 µM,"HeLa cells [3]; Homo sapiens, HeLa, 96 h, 10 μM agent, percent of control, read-out: Relative % proto IX",259%
same,inhibition at 100 µM,HeLa cells [3]; [5],52%
same,inhibition at 1 µM,"HeLa cells [3]; Homo sapiens, HeLa, 1 μM agent, negative values indicate that growth occurred",-26%
same,inhibition at 10 µM,"HeLa cells [3]; Homo sapiens, HeLa, 10 μM agent, negative values indicate that growth occurred",-15%
C#CCN1C(=O)COc2cc(F)c(-n3ncc(=O)n(C)c3=O)cc21 [Agent D],Amount of Proto IX,HeLa cells [2]; 100 μM agent,1.1 pmol
same,Fluorescence Emission cps 400/630,HeLa cells [2]; 100 μM agent,10551 cps
Cn1c(=O)cnn(-c2ccc(Cl)cc2F)c1=O [Agent E],Amount of Proto IX,HeLa cells [2]; 100 μM agent,0.9 pmol
same,Fluorescence Emission cps 400/630,HeLa cells [2]; 100 μM agent,8967 cps
CC(C)Oc1cc(-n2nc(C(C)(C)C)oc2=O)c(Cl)cc1Cl [Agent F],Amount of Proto IX,HeLa cells [3]; 100 μM agent,2.71 pmol
same,inhibition at 100 µM,HeLa cells [3]; [5],106%
C#CCOc1cc(N2C(=O)C(C)=C(C)C2=O)c(F)cc1Cl [Compound 8ab],effect on cell growth (rough observations),HeLa cells [4],lethal
C#CCOc1cc(N2C(=O)C3CCCCC3C2=O)c(F)cc1Cl (stereo not shown) [Compound 8ac],inhibition at 100 µM,HeLa cells [4],50%
Cc1nc2ccccc2n1Cc1c(F)c(F)c(F)c(F)c1F [Compound 8ad],effect on cell growth (rough observations),HeLa cells [4],lethal
CC1(C)Cc2c(Br)ccc(OC(=O)N3CCCC3)c2O1 [Compound 8ae],effect on cell growth (rough observations),HeLa cells [4],lethal
CCS(=O)(=O)Nc1cc(-n2nnn(-c3ccc([N+](=O)[O-])cc3)c2=O)c(F)cc1Cl [Compound 8af],effect on cell growth (rough observations),HeLa cells [4],lethal
CCOC(=O)C(C)Oc1ccc(Cn2c(C)nn(-c3cc(OC)c(Cl)cc3F)c2=O)cc1 (stereo not shown) [Compound 8ag],inhibition at 100 µM,HeLa cells [4],25%
C#CCOc1cc(N=C2SCC(=O)N2C)c(F)cc1Cl [Compound 8ah],effect on cell growth (rough observations),HeLa cells [4],lethal
CC(C)Oc1cc(-n2oc(=O)n(C)c2=O)c(F)cc1Cl [Compound 8ai],inhibition at 100 µM,HeLa cells [4],50%
COc1ccc(OC)c(CNC(=O)c2ccc(Cl)cc2)c1 [Compound 8aj],inhibition at 100 µM,HeLa cells [4],25%
O=C(Nc1ccc(Cl)cc1)C(F)(F)Sc1ccccc1 [Compound 8ak],inhibition at 100 µM,HeLa cells [4],50%
CCOC(=O)C(C)OC(=O)c1cc(Oc2ccc(C(F)(F)F)cc2Cl)ccc1[N+](=O)[O-] (stereo not shown) [Compound 8an],inhibition at 100 µM,HeLa cells [4],50%
COC(=O)c1cc(Oc2ccc(Cl)cc2Cl)ccc1[N+](=O)[O-] [Compound 8ap],inhibition at 100 µM,HeLa cells [4],50%
O=[N+]([O-])c1ccc(Oc2ccc(Cl)cc2Cl)cc1 [Compound 8ar],inhibition at 100 µM,HeLa cells [4],25%
C#CCOc1cc(-n2ncc(=O)n(C)c2=O)c(F)cc1Cl [Compound 8t],inhibition at 100 µM,HeLa cells [4],50%
C#CCOc1cc(N2N=CCN(C)C2=O)c(F)cc1Cl [Compound 8u],inhibition at 100 µM,HeLa cells [4],60%

# Source: patent US5298502A, “Method and composition for photodynamic treatment and detection of tumors” (priority 1991, dated 1994)
